Test results taken from patent US20070219180A1, “Muscle Relaxtion Accelerator and Therapeutic Agent for Muscular Tissue Diseases Such as Muscle Relaxation Failure” (priority 2004, published 2007).

Key:
[1] = test system: binding of troponin I to the actin-tropomyosin complex; experiment: Experiment 4 and comparison example: co-precipitation (binding) of troponin I with the actin-tropomyosin complex in the presence of EGTA; set-up: species or system swine; details: 10 mM EGTA, 100,000×g 120 min 25° C.
Protocol: The actin-tropomyosin complex and the troponin C-I complex are usually detected by analyzing the precipitate obtained by ultracentrifugation of a mixture containing the actin-tropomyosin complex and the troponin C-I complex for 120 minutes at 100,000×g at 25° C. The binding of the troponin C-I complex to the actin-tropomyosin complex in muscle tissues can be confirmed by the detected actin-tropomyosin complex and the detected troponin C-I complex. For example, when a mixture containing the actin-tropomyosin complex and the troponin C-I complex is ultracentrifuged in the presence of EGTA as a calcium chelating agent (in other words, in the absence of calcium ions), the actin-tropomyosin complex and the troponin C-I complex combine each other to precipitate together. Detection of troponin I in the precipitate using SDS-gel electrophoresis allows confirmation that the precipitate contains a complex formed by the actin-tropomyosin complex and the troponin C-I complex.
A precipitate due to binding of the actin-tropomyosin complex and troponin I is usually not formed when a mixture containing the actin-tropomyosin complex, troponin and propranolol (a β-blocker) used as a therapeutic agent for heart failure is ultracentrifuged at 100,000×g for 120 minutes 25° C.
Swine muscle-derived actin, chicken gizzard-derived tropomyosin and swine myocardium-derived troponin used in this experiment were purchased from Sigma-Aldrich Corporation, and other unspecified reagents used in this experiment were purchased from Wako Pure Chemical Industries Ltd.
A 500 μl sample was prepared by adding 4.2 μg of actin, 2.1 μg of tropomyosin and 14 μg of troponin to 500 μl of a reaction solution containing 60 mM KCl, 20 mM MOPS (3-morpholinopropanesulfonic acid), 2 mM of MgCl2, 0.05 μg of pepstatin A, and 15 mM 2-mercaptoethanol. After centrifugation of this sample at 2,000×g for 10 minutes at 25° C., the precipitate was removed and the resulting supernatant was distributed to separate test tubes containing 10 mM of EGTA, and each tube was determined as a test sample.
Each test sample was reacted for 120 minutes at 25° C. and centrifuged at 100,000×g for 120 minutes at 25° C., and the supernatants were removed. After reaction solution was gently added to the removed precipitate so as not to suspend the precipitate, the precipitate was again removed by suction, washed, and determined as a test precipitate.
A sample buffer for polyacrylamide gel electrophoresis (SDS-PAGE) was added to each washed test precipitate and mixed well to suspend the test precipitate. The resulting suspension was electrophoresized on a gel (PAG MINI “No. 1” 10/20) for about 1 hour at 40 mA. After electrophoresis, the suspension was silver-stained using “Daiichi” 2D-silver staining reagent (Daiichi Pure Chemicals Co., Ltd), and washed with distilled water and dried. The amount of precipitate in each silver-stained protein band obtained by gel electrophoresis was quantitated using a densitometer.
The amounts of precipitate of troponin I in the second to fifth test precipitates were calculated as ratios of the amount of precipitate of troponin I in the first test precipitate, which was obtained without the compound (the concentration of the compound was 0 M).
The affinity of troponin I for the actin-tropomyosin complex was measured using the same method as in Experiment 4, but using propranolol (a β-blocker which is used as a therapeutic agent for heart failure) for comparison with the compound in the invention.
A 500 μl sample was prepared by adding 4.2 μg of actin, 2.1 μg of tropomyosin and 14 μg of troponin I to 500 μl of a reaction solution containing 60 mM KCl, 20 mM MOPS (3-morpholinopropanesulfonic acid), 2 mM MgCl2, 0.05 μg of pepstatin A, and 15 mM 2-mercaptoethanol. […]

male Wistar rats = experiment: Experiment 2: effect of the compound on blood pressure in rats under calcium chloride and norepinephrine infusion; format: in vivo, rat
Protocol: Eight-week old male Wistar rats weighing 310-330 g were used in this experiment. The rats were anesthetized with 1,000 mg/kg of urethane and 80 mg/kg of α-chloralose by subperitoneal injection, and natural respiration was maintained. In this experiment, 100 mg of the compound was dissolved in 1 ml of dimethylsulfoxide (DMSO) and the resulting DMSO solution of the compound was stored at 4° C. Norepinephrine solution was prepared by dissolving 1 mg of norepinephrine in 41 μl of distilled water.
Similarly to Experiment 1, this experiment was performed at 20 to 25° C. Furthermore, similarly to Experiment 1, continuous infusion catheters of calcium chloride solution or norepinephrine solution containing calcium chloride were inserted into the right external jugular veins of the rats, and microchip catheters (SPC-320, Millar) were inserted into the aorta via the right common arteries.
A 1-lead electrocardiogram and the systolic pressure and diastolic pressure were recorded on a personal computer via an A/D converter. In the preparation step, blood pressure, pulse, and electrocardiogram of the rats were monitored for 15 minutes and allowed to stabilize, and then 5% dextrose solution containing calcium chloride (at a concentration based on the weight of the rat) was infused into the right external jugular vein for 25 minutes at 16.6 μl/min (9.0 mg/kg/min of calcium chloride).
Secondly, norepinephrine solution containing calcium chloride without changes in the dosage regimen was immediately injected at a rate of 40 μg/kg/min (in the form of a norepinephrine solution containing calcium chloride). Five minutes after commencement of injection (intravenous injection) of norepinephrine, continuous injection of calcium chloride and norepinephrine in the form of a norepinephrine solution containing calcium chloride was started, and 0.2 ml of 1% DMSO solution as a solvent control was administered over 30 seconds to the first rat (weight: 310 g) via the right femoral vein; this rat was defined as Control 3. After the solvent control was injected, 1% DMSO solution as a solvent control was additionally administered to Control 3 at 10 μl/min from commencement of solvent control injection to 15 minutes after the start of administration. Similarly to Control 3, 5 minutes after commencement of injection (intravenous injection) of norepinephrine in the form of a norepinephrine solution containing the calcium chloride, continuous injection of the calcium chloride and norepinephrine in the form of a norepinephrine solution containing calcium chloride was started, and 0.2 ml of 1% DMSO solution containing 0.3 mg/kg of the compound was administered over 30 seconds to a second rat (weight: 330 g; referred to as Test drug 3), and 1% DMSO solution containing 0.02 mg/kg of the test drug was then administered for 14 minutes at a rate of 0.02 mg/kg/min. Systolic pressure (mmHg) and diastolic pressure (mmHg) of each rat were measured at 20 heart beats every 2 minutes for 14 minutes after commencement of intravenous injection of the test drug. Mean blood pressure was calculated from the measured systolic pressure (mmHg) and diastolic pressure (mmHg) according to the following formula: mean blood pressure=[…].

- Precipitate of troponin I (ratio to the sample without drug) ([1]; drug concentration 10^−4 mol): 2.8
- Precipitate of troponin I (ratio to the sample without drug) ([1]; drug concentration 10^−5 mol): 2.2
- Precipitate of troponin I (ratio to the sample without drug) ([1]; drug concentration 10^−6 mol): 1.8
- Precipitate of troponin I (ratio to the sample without drug) ([1]; drug concentration 10^−7 mol): 1.2
SMILES: COc1ccc2c(c1)CN(C(=O)CCN1CCC(Cc3ccccc3)CC1)CCS2 [the compound, 4-[3-(4-benzylpiperidine-1-yl)propionyl]-7-methoxy-2,3,4,5-tetrahydro-1,4-benzothiazepine]
- Mean blood pressure (male Wistar rats; Test drug 3: 0.3 mg/kg i.v. over 30 s then 0.02 mg/kg/min for 14 min, 0 minutes (just before the start of test drug administration)): 136 mmHg
- Mean blood pressure (male Wistar rats; Test drug 3: 0.3 mg/kg i.v. over 30 s then 0.02 mg/kg/min for 14 min, 5 minutes before test drug (just before the start of norepinephrine), baseline): 125 mmHg
- Mean blood pressure (male Wistar rats; Test drug 3: 0.3 mg/kg i.v. over 30 s then 0.02 mg/kg/min for 14 min, 30 minutes before test drug (5 minutes before the start of CaCl2), baseline): 122 mmHg
- Mean blood pressure (male Wistar rats; Test drug 3: 0.3 mg/kg i.v. over 30 s then 0.02 mg/kg/min, CaCl2 + norepinephrine infusion, 2 minutes after the start of test drug administration): 149 mmHg
- Mean blood pressure (male Wistar rats; Test drug 3: 0.3 mg/kg i.v. over 30 s then 0.02 mg/kg/min, CaCl2 + norepinephrine infusion, 4 minutes after the start of test drug administration): 162 mmHg
- Mean blood pressure (male Wistar rats; Test drug 3: 0.3 mg/kg i.v. over 30 s then 0.02 mg/kg/min, CaCl2 + norepinephrine infusion, 6 minutes after the start of test drug administration): 141 mmHg
- Mean blood pressure (male Wistar rats; Test drug 3: 0.3 mg/kg i.v. over 30 s then 0.02 mg/kg/min, CaCl2 + norepinephrine infusion, 8 minutes after the start of test drug administration): 139 mmHg
- Mean blood pressure (male Wistar rats; Test drug 3: 0.3 mg/kg i.v. over 30 s then 0.02 mg/kg/min, CaCl2 + norepinephrine infusion, 10 minutes after the start of test drug administration): 135 mmHg
- Mean blood pressure (male Wistar rats; Test drug 3: 0.3 mg/kg i.v. over 30 s then 0.02 mg/kg/min, CaCl2 + norepinephrine infusion, 12 minutes after the start of test drug administration): 136 mmHg
- Mean blood pressure (male Wistar rats; Test drug 3: 0.3 mg/kg i.v. over 30 s then 0.02 mg/kg/min, CaCl2 + norepinephrine infusion, 14 minutes after the start of test drug administration): 134 mmHg
